Data: patent US5514694A, “Peptidyl ketoamides” (Georgia Tech Research Corp, priority 1993, dated 1996)
pIC50, pKi: −log10 of the molar value. Like-named read-outs stand apart in the source and are kept apart here.

Columns and labels:
Type in all cases: biochemical
calpain II from rabbit = assay: Calpain II inhibition, Suc-Leu-Tyr-AMC hydrolysis (KI); details: read-out: KI Cal II
Description: (§1) HEPES, heparin, and A23187 were obtained from Calbiochem. Suc-Leu-Tyr-AMC and chromogenic substrates were obtained from Sigma. Calpain I was purified from human erythrocytes according to the method of Kitahara (Kitahara et al., J. Biochem. 95, 1759-1766) omitting the Blue-Sepharose step. Calpain II from rabbit muscle and cathepsin B were purchased from Sigma. Papain was purchased from Calbiochem.
(§2) Peptide α-ketoamides were assayed as reversible enzyme inhibitors. Various concentrations of inhibitors in Me2 SO were added to the assay mixture which contained buffer and substrate. The reaction was started by the addition of the enzyme and the hydrolysis rates were followed spectrophotometrically or fluorimetrically.
(§3) Calpain I from human erythrocytes and calpain II from rabbit were assayed using Suc-Leu-Tyr-AMC Sasaki et al., J. Biol. Chem. 259, 12489-12494 (1984); incorporated herein by reference!, and the AMC (7-amino-4-methylcoumarin) release was followed fluorimetrically (excitation at 380 nm, and emmision at 460 nm). Calpains were assayed in 25 mM Tris pH=8.0, 10 mM CaC12. Fluorescence was followed using a Gilson FL-1A fluorometer or a Perkin-Elmer 203 Fluorescence spectrometer. Cathepsin B was assayed in 20 mM sodium acetate pH=5.2, 0.5 mM dithiothreitol using Bz-Phe-Val-Arg-p-nitroanilide as substrate. Alternately, cathepsin B was assayed with Z-Arg-Arg-AFC Barrett and Kirschke, Methods Enzymol. 80, 535-561 (1981); incorporated herein by reference!, and the AFC (7-amino-4-trifluoromethylcoumarin) release was followed fluorimetrically (excitation at 400 nm and emmision at 505 nm). Papain was assayed in 100 mM KPO4, 1 mM EDTA, 2.5 mM cysteine pH=6.0 using Bz-Arg-AMC or Bz-Arg-NA Kanaoka et al., Chem. Pharm. Bull. 25, 3126-3128 (1977); incorporated herein by reference! as a substrate. The AMC (7-amino-4-methylcoumarin) release was followed fluorimetrically (excitation at 380 nm, and emmision at 460 nm). Enzymatic hydrolysis rates were measured at various substrate and inhibitor concentrations, and KI values were determined by either Lineweaver-Burk plots or Dixon plots.
(§4) A 0.1M Hepes, 0.5M NaCl, pH 7.5 buffer was utilized for human leukocyte elastase (HLE), porcine pancreatic elastase (PPE), chymotrypsin and cathepsin G. A 0.1 Hepes, 0.01 M CaCl2, pH 7.5 buffer was utilized for trypsin, plasmin, and coagulation enzymes. A 50 mM Tris.HCl, 2 mM EDTA, 5 mM cysteine, pH 7.5 was used as a buffer for papain. A 88 mM KH2 PO4, 12 mM Na2 HPO4, 1.33 mM EDTA, 2.7 mM cysteine, pH 6.0 solution was used as a buffer for cathepsin B. A 20 mM Hepes, 10 mM CaCl2, 10 mM mercatoethanol, pH 7.2 buffer was utilized for calpain I and calpain II.

[1] = target: T1, Calpain I from human erythrocytes (Homo sapiens, UniProt P07384); assay: Calpain I inhibition, Suc-Leu-Tyr-AMC hydrolysis (KI); details: for pKi: read-out: KI Cal I
T1 construct: Calpain I was purified from human erythrocytes; from tissue; host or cells: human erythrocytes
T1 sequence (P07384 1-714): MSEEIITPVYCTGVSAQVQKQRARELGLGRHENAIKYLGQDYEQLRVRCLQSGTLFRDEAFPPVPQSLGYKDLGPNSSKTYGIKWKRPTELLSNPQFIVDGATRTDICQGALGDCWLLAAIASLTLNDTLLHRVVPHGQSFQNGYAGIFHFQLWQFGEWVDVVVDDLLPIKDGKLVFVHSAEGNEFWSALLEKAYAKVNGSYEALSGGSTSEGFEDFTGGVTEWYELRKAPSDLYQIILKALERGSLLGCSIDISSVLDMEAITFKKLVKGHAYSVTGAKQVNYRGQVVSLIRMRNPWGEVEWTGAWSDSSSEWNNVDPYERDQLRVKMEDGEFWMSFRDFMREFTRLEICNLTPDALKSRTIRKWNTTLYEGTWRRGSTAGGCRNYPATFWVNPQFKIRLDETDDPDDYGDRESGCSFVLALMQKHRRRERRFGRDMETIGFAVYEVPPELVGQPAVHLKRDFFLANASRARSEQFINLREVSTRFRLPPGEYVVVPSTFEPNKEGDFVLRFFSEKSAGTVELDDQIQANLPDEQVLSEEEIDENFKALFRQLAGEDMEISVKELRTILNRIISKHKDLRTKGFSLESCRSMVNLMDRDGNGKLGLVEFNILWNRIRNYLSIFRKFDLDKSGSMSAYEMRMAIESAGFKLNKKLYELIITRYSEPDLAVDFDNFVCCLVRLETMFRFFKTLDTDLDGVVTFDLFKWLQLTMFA
T1 sequence (P04632 1-268 partner): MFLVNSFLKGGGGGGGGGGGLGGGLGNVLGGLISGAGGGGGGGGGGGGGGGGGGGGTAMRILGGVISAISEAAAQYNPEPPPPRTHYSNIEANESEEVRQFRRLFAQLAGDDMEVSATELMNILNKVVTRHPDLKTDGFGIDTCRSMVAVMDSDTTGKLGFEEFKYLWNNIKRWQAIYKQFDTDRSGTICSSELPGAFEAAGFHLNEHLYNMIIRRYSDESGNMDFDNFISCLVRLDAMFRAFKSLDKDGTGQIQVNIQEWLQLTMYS
Description: as §1, §2, §3, §4

[2] = target: T2, human leukocyte elastase (HLE) (Homo sapiens, UniProt P08246); assay: HLE inhibition, MeO-Suc-Ala-Ala-Pro-Val-NA hydrolysis; details: Table 4, Z-Leu--AA--CONH-R
T2 sequence (P08246 30-267): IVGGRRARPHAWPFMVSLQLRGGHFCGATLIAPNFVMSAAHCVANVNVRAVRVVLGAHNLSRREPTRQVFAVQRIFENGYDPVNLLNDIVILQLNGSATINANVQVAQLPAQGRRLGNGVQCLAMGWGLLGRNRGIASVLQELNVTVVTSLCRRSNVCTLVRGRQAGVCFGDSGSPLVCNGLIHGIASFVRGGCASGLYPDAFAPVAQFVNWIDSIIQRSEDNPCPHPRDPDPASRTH
Description: as §2, §4
HLE and PPE were assayed with MeO-Suc-Ala-Ala-Pro-Val-NA and Suc-Ala-Ala-Ala-NA, respectively Nakajima et al., J. Biol. Chem. 254, 4027-4032 (1979); incorporated herein by reference!. Human leukocyte cathepsin G and chymotrypsin Aα were assayed with Suc-Val-Pro-Phe-NA Tanaka et al., Biochemistry 24, 2040-2047 (1985); incorporated herein by reference!. The hydrolysis of peptide 4-nitroanilides was measured at 410 nm ε410 =8800 M^-1 cm^-1; Erlanger et al., Arch. Biochem. Biophys. 95, pp 271-278 (1961); incorporated herein by reference!. Trypsin, thrombin, human plasma kallikrein, porcine pancreatic kallikrein, human factor XIa, and human plasmin were assayed with Z-Arg-SBzl or Z-Gly-Arg-SBu-i McRae et al., Biochemistry 20, 7196-7206 (1981); incorporated herein by reference!. All peptide thioester hydrolysis rates were measured with assay mixtures containing 4,4'-dithiodipyridine ε324 =19800 M^-1 cm^-1; Grasetti & Murray, Arch. Biochem. Biophys. 119, 41-49 (1967); incorporated herein by reference!.

[3] = Table 2, Z-Leu--AA--CONH--CH2 CH(OH)-R

Compound	pIC50 [2]	pKi [1, 3]	also measured
CCC(NC(=O)C(CC(C)C)NC(=O)C(c1ccccc1)c1ccccc1)C(=O)C(=O)NCc1ccccn1 (stereo not drawn) [Ph2 CH-CO-Leu-Abu-CONH-CH2 -2-pyridyl, Ph2 CHCO-Leu-Abu-CONH-2-CH2 -Pyridyl]			pKi (calpain II from rabbit; Table 3, M1 CO-Leu--AA--CONH-R): 7.05
CC(C)CC(NC(=O)C(c1ccccc1)c1ccccc1)C(=O)NC(Cc1ccccc1)C(=O)C(=O)NCC(O)c1ccccc1 (stereo not drawn) [Ph2 CH-CO-Leu-Phe-CONH-CH2 CH(OH)Ph, Ph2 CHCO-Leu-Phe-CONH--CH2 CH(OH)Ph]			pKi (calpain II from rabbit; Table 3, M1 CO-Leu--AA--CONH-R): 6.14; pKi ([1]; Table 3, M1 CO-Leu--AA--CONH-R): 5.00
CCC(NC(=O)C(CC(C)C)NC(=O)OCc1ccccc1)C(=O)C(=O)NCCc1ccccn1 (stereo not drawn) [Z-Leu-Abu-CONH-(CH2)2 -2-pyridyl, Z-Leu-Abu-CONH--(CH2)2 -2-Pyridyl]			pKi (calpain II from rabbit; Table 1, Z-Leu--AA--CONHR): 6.33; pKi ([1]; Table 1, Z-Leu--AA--CONHR): 6.39
CCC(NC(=O)C(CC(C)C)NC(=O)OCc1ccccc1)C(=O)C(=O)NCCNC(=O)CCCCC1SCC2NC(=O)NC21 (stereo not drawn) [Z-Leu-Abu-CONH-(CH2)2 NH-biotinyl, Z-Leu-Abu-CONH--(CH2)2NH-Biotinyl]	4.42		pKi ([1]; Table 1, Z-Leu--AA--CONHR): 6.19
CCC(NC(=O)C(CC(C)C)NC(=O)OCc1ccccc1)C(=O)C(=O)NCC(O)c1ccc(OCc2ccccc2)c(OCc2ccccc2)c1 (stereo not drawn) [Z-Leu-Abu-CONH--CH2 CH(OH)C6 H3 (3,4-(OCH2 Ph)2)]	4.19	6.64	
CCC(NC(=O)C(CC(C)C)NC(=O)OCc1ccccc1)C(=O)C(=O)NCc1nc2c(c(=O)n(C)c(=O)n2C)n1C (stereo not drawn) [Z-Leu-Abu-CONH-CH2 -8-caffeine, Z-Leu-Abu-CONH--CH2 -8-Caffeine]	3.81		pKi ([1]; Table 1, Z-Leu--AA--CONHR): 4.49
CCC(NC(=O)C(CC(C)C)NC(=O)OCc1ccccc1)C(=O)C(=O)NCC(O)c1cccc(Oc2ccccc2)c1 (stereo not drawn) [Z-Leu-Abu-CONH-CH2 CH(OH)-C6 H4 (3-OPh), Z-Leu-Abu-CONH--CH2 CH(OH)C6 H4 (3-OPh)]	4.35	6.05	
CCCC(NC(=O)C(CC(C)C)NC(=O)OCc1ccccc1)C(=O)C(=O)NCc1ccccn1 (stereo not drawn) [Z-Leu-Nva-CONH-CH2 -2-pyridyl, Z-Leu-Nva-CONH--CH2 -2-Pyridyl]			pKi (calpain II from rabbit; Table 1, Z-Leu--AA--CONHR): 6.92; inhibition of calpain I, in words [1]: best inhibitor of calpain I; pKi ([1]; Table 1, Z-Leu--AA--CONHR): 7.72
CCCC(NC(=O)C(CC(C)C)NC(=O)OCc1ccccc1)C(=O)C(=O)NCC(O)c1ccccc1 (stereo not drawn) [Z-Leu-Nva-CONH-CH2 CH(OH)-Ph, Z-Leu-Nva-CONH--CH2 CH(OH)Ph]		5.11	pKi (calpain II from rabbit; [3]): 4.96
CC(C)CC(NC(=O)OCc1ccccc1)C(=O)NC(Cc1ccccc1)C(=O)C(=O)NCC(O)c1cccc(Oc2ccccc2)c1 (stereo not drawn) [Z-Leu-Phe-CONH-CH2 CH(OH)-C6 H4 (3-OPh), Z-Leu-Phe-CONH--CH2 CH(OH)C6 H4 (3-OPh)]		6.22	
Ph2 CHCO-Leu-Abu-CONHEt [Ph2 CH-CO-Leu-Abu-CONH-Et]			pKi ([1]; Table 3, M1 CO-Leu--AA--CONH-R): 5.30
Z-Leu-Abu-CONH--(CH2)2 C6 H4 (4-OH) [Z-Leu-Abu-CONH-(CH2)2 C6 H4 (4-OH)]			pKi (calpain II from rabbit; Table 1, Z-Leu--AA--CONHR): 7.22; pKi ([1]; Table 1, Z-Leu--AA--CONHR): 6.42
Z-Leu-Abu-CONH--CH2 CH(OH)C6 F5 [Z-Leu-Abu-CONH-CH2 CH(OH)-C6 F5]	4.36	7.30	inhibition of calpain I, in words [1]: best inhibitor for calpain I
Z-Leu-Phe-CONH--CH2 CH(OH)C6 H4 (3-CF3) [Z-Leu-Phe-CONH-CH2 CH(OH)-C6 H4 (3-CF3)]		6.34	

Now from value to compound, other results behind:

pIC50 [2]	pKi [1, 3]	Compound	also measured
4.32		CCC(NC(=O)C(CC(C)C)NC(=O)OCc1ccccc1)C(=O)C(=O)NCCc1c[nH]c2ccccc12 (stereo not drawn) [Z-Leu-Abu-CONH-(CH2)2 -3-indolyl, Z-Leu-Abu-CONH--(CH2)2 -3-Indolyl]	pKi (calpain II from rabbit; Table 1, Z-Leu--AA--CONHR): 7.30; pKi ([1]; Table 1, Z-Leu--AA--CONHR): 6.52
4.52	7.15	CCC(NC(=O)C(CC(C)C)NC(=O)OCc1ccccc1)C(=O)C(=O)NCC(O)c1cccc(Oc2cccc(C(F)(F)F)c2)c1 (stereo not drawn) [Z-Leu-Abu-CONH--CH2 CH(OH)C6 H4 -3-OC6 H4 (3-CF3)]	
4.49	6.62	CCC(NC(=O)C(CC(C)C)NC(=O)OCc1ccccc1)C(=O)C(=O)NCC(O)c1ccc(OC)cc1 (stereo not drawn) [Z-Leu-Abu-CONH-CH2 CH(OH)-C6 H4 (4-OCH3), Z-Leu-Abu-CONH--CH2 CH(OH)C6 H4 (4-OCH3)]	
4.55	7.00	CCC(NC(=O)C(CC(C)C)NC(=O)OCc1ccccc1)C(=O)C(=O)NCC(O)c1ccc(Oc2ccccc2)cc1 (stereo not drawn) [Z-Leu-Abu-CONH-CH2 CH(OH)-C6 H4 (4-OPh), Z-Leu-Abu-CONH--CH2 CH(OH)C6 H4 (4-OPh)]	
	6.23	CC(C)CC(NC(=O)OCc1ccccc1)C(=O)NC(Cc1ccccc1)C(=O)C(=O)NCC(O)c1cccc(Oc2ccc(Cl)c(Cl)c2)c1 (stereo not drawn) [Z-Leu-Phe-CONH--CH2 CH(OH)C6 H4 -3-OC6 H3 (3,4-Cl2)]	
	6.15	CC(C)CC(NC(=O)OCc1ccccc1)C(=O)NC(Cc1ccccc1)C(=O)C(=O)NCC(O)c1c(F)c(F)c(F)c(F)c1F (stereo not drawn) [Z-Leu-Phe-CONH-CH2 CH(OH)-C6 F5, Z-Leu-Phe-CONH--CH2 CH(OH)C6 F5]	
	6.42	Z-Leu-Abu-CONH--CH2 CH(OH)C6 H2 (2,4,6-(OCH3)3)	
